pEC50, pIC50: −log10 of the molar value. “Also recorded” adds a separate entry of the source.
Tests used:
[1] = target: T1, 14-3-3σ/ERα complex (Homo sapiens, UniProt P03372+P31947); test: FA compound titration to 14-3-3σ/ERα phosphopeptide complex; type: binding; conditions: 1 µM 14-3-3σ and 10 nM ERα peptide
[2] = target: T1, 14-3-3σ/ERα complex; conditions: previously reported; read-out: EC50, binding to the 14-3-3σ/ERα complex; cited from earlier work
[3] = target: 14-3-3/ERα complex (Homo sapiens, UniProt P03372+P31947); test: FA 14-3-3 titration to ERα peptide with compound, with or without VCB (14-3-3/ERα stabilization); type: binding; conditions: for stabilization of the 14-3-3/ERα complex with VCB, VCB recruitment / stabilization of the 14-3-3/ERα interaction: 1 µM compound; for stabilization of the 14-3-3/ERα complex with VCB, VCB recruitment: 5 µM VCB; for stabilization of the 14-3-3/ERα interaction: without VCB
[4] = target: T2, NanoLuc–VHL (Homo sapiens, UniProt P40337); test: cell-based; conditions: IC50, VHL probe displacement (BRET), live (non-permeabilized) MCF-7 cells, 4 h
[5] = target: His-tagged VCB complex / biotinylated 14-3-3γ / ERα peptide (Homo sapiens, UniProt P03372+P40337+P61981); test: TR-FRET assay of VCB recruitment to 14-3-3γ with ERα peptide; type: binding; conditions: 20 µM ERα peptide, 50 nM His-VCB, 50 nM biotinylated 14-3-3γ
[6] = target: 14-3-3ζ/ERα(LBD_F) complex with CRL2^VHL (Homo sapiens, UniProt P03372+P40337+P63104, F591R/P592R/S305A); test: In vitro ubiquitination assay (SDS-PAGE, western blot, Alexa Fluor 488 ubiquitin); type: biochemical; conditions: for ubiquitination of the 14-3-3ζ/ERα(LBD_F) complex: Coomassie SDS–PAGE, quantified at 15 min
Protocol: Briefly, the 14-3-3ζ/ERα^(LBD_F) complex was incubated with recombinantly expressed and purified UBE1, UBE2D2, UBE2R1, CRL2^VHL and ubiquitin in the presence of ^MGPROTACs and analysed time-dependently using Coomassie-stained SDS–PAGE (Fig. 6a). Ubiquitin conjugation was rapid with higher molecular weight species evident within 5 min (Supplementary Fig. 21) and were quantified at 15 min by Coomassie-stained SDS–PAGE (Fig. 6b, c and Supplementary Fig. 22).
UBE2D2 was selected as a representative of the promiscuous UBE2D family which is known to work with Cullin RING E3 ligases such as CRL2^VHL[48]–[52]. The UBE2R family is known to be more apt at extending polyubiquitin chains[49]–[51], however recent studies have shown that UBE2R1 and UBE2R2 are also capable of installing the first ubiquitin on degrader-targeted substrates with CRL2^VHL[53],[54].
The reaction was quenched with reducing SDS sample buffer. The protein species were resolved by SDS-PAGE on a 10% bis-tris NuPAGE gel using MOPS running buffer, run at 175 V for 50 min. […] Proteins were transferred to a nitrocellulose membrane either by wet transfer at 90 V for 90 min, or using an iBlot 2 Gel Transfer Device (Invitrogen). […] For an example of presentation of the full scan blots, see Supplementary Fig. S23 or the Source Data file.

[7] = tested on: 14-3-3/ERα complex; test: 14-3-3 immunoprecipitation–mass spectrometry (IP–MS) in MCF-7 cells; conditions: MCF-7, 10 μM CV2a, 24 h; not statistically significant (p > 0.05)
[8] = target: T2, NanoLuc–VHL; conditions: MCF-7 cells, in-cell VHL target engagement

CC(=O)N[C@H](C(=O)N1C[C@H](O)C[C@H]1C(=O)NCc1ccc(-c2scnc2C)cc1)C(C)(C)C [VH032, reference compound]
binding to the 14-3-3/ERα complex [1]: did not engage the 14-3-3/ERα complex

C=CC(C)(C)OC[C@H]1O[C@H](O[C@@H]2C3=C([C@H](C)CNC(C)=O)C[C@H](O)[C@]3(C)/C=C3/[C@@H](COC)CC[C@H]3[C@@H](C)[C@H]2O)[C@H](O)[C@@H](O)[C@@H]1O [FC-NAc, 3′-deacetylated fusicoccin N-acetyl]
pEC50 [2]: 7.82

C=CC(C)(C)OCC1OC(OC2C3=C(C(C)CNC(=O)CCC(=O)NC(C(=O)N4CC(O)CC4C(=O)NCc4ccc(-c5scnc5C)cc4)C(C)(C)C)CC(O)C3(C)C=C3C(COC)CCC3C(C)C2O)C(O)C(O)C1O (stereo not drawn) [CV0a]
stabilization of the 14-3-3/ERα complex with VCB, VCB recruitment [3]: negatively cooperative | pIC50 [4]: < 5.00

C=CC(C)(C)OCC1OC(OC2C3=C(C(C)CNC(=O)CCCCCCCCCCCC(=O)NC(C(=O)N4CC(O)CC4C(=O)NCc4ccc(-c5scnc5C)cc4)C(C)(C)C)CC(O)C3(C)C=C3C(COC)CCC3C(C)C2O)C(O)C(O)C1O (stereo not drawn) [CV2a]
VCB recruitment to 14-3-3, TR-FRET signal [5]: unable to recruit VHL in the absence of ERα peptide; also recorded: extended recruitment window | enhancement of ERα binding to 14-3-3, two-dimensional FA titration ([3]; CV2a titration in the absence of VCB): up to 2.5 fold | enhancement of ERα binding to 14-3-3, two-dimensional FA titration ([3]; high CV2a and VCB concentrations): over 23 fold | ubiquitination of the 14-3-3ζ/ERα(LBD_F) complex [6]: robust polyubiquitination | ERα enrichment in the 14-3-3 pull-down [7]: ~ 2.5 fold | cell permeability [8]: cell-permeable

C=CC(C)(C)OCC1OC(OC2C3=C(C(C)CNC(=O)CCCCCCCCCCCC(=O)NC(C(=O)N4CC(O)CC4C(=O)NCc4ccc(-c5scnc5C)cc4)C(C)(C)C)CC(O)C3(C)C=C3C(COC)CCC3C(C)C2O)C(O)C(O)C1O (stereo not drawn) [(S-OH)-CV2a]
VCB recruitment to 14-3-3, TR-FRET signal [5]: no TR-FRET signal | stabilization of the 14-3-3/ERα complex with VCB, VCB recruitment [3]: failed to recruit VCB | stabilization of the 14-3-3/ERα interaction [3]: stabilized the 14-3-3/ERα complex similarly to CV2a | ubiquitination of the 14-3-3ζ/ERα(LBD_F) complex [6]: completely abrogated ubiquitination

C=CC(C)(C)OCC1OC(OC2C3=C(C(C)CNC(=O)CCOCCOCCOCCC(=O)NC(C(=O)N4CC(O)CC4C(=O)NCc4ccc(-c5scnc5C)cc4)C(C)(C)C)CC(O)C3(C)C=C3C(COC)CCC3C(C)C2O)C(O)C(O)C1O (stereo not drawn) [CV2p]
ubiquitination of the 14-3-3ζ/ERα(LBD_F) complex [6]: robust polyubiquitination | E2 requirement of ubiquitination ([6]; UBE2D2 vs UBE2R1): observed only with UBE2D2 | ubiquitination of assembled complex vs apo-14-3-3 ([6]; up to 24 h): preferential ubiquitination of the assembled 14-3-3ζ/ERα^(LBD_F) complex over apo-14-3-3 | binding to the 14-3-3/ERα complex [1]: highest apparent potency

COCC1CCC2C1=CC1(C)C(=C(C(C)CNC(C)=O)CC1O)C(OC1OC(CO)C(O)C(O)C1O)C(O)C2C (stereo not drawn)
stabilization of the 14-3-3/ERα interaction [3]: stabilizes the 14-3-3/ERα interaction

C=CC(C)(C)OCC1OC(OC2C3=C(C(C)CNC(=O)CCCCCCCCCCCCCCCCCC(=O)NC(C(=O)N4CC(O)CC4C(=O)NCc4ccc(-c5scnc5C)cc4)C(C)(C)C)CC(O)C3(C)C=C3C(COC)CCC3C(C)C2O)C(O)C(O)C1O (stereo not drawn) [CV3a]
VCB recruitment to 14-3-3, TR-FRET signal [5]: markedly reduced recruitment | ubiquitination of the 14-3-3ζ/ERα(LBD_F) complex [6]: robust polyubiquitination

From PMC13490399, “Induced ubiquitination of the partially disordered estrogen receptor alpha via a 14-3-3 directed molecular glue-PROTAC” (Nature Communications, 2026)
